Assay results: patent US8324261B2, “Histidine derivatives” (Nippon Zoki Pharmaceutical Co., Ltd., priority 2007, dated 2012)
Read-outs that look alike come from different tables or passages of the source.

Legend:
mice [1] = experiment: Test for analgesic effect (4): acetic acid writhing test; assay type: in vivo; settings: oral single dose; 0.7% acetic acid i.p. 25 minutes after; writhing numbers during 10 minutes
Experimental: The compounds of the present invention or the carboxylic acid type thereof were orally administered to mice and a test for an analgesic effect was carried out by means of an acetic acid writhing test. As to the test animals, male mice of ddY strain of four weeks age were subjected to a preliminary breeding and they were used where one group comprised ten mice. Each of the compound of the present invention or the carboxylic acid type thereof as a test substance was orally administered in a single dose while, to a control group, distilled water (water for injection) was administered similarly. After 25 minutes from the administration of the test substance, a 0.7% acetic acid/physiological saline was intraperitoneally administered at the dose of 10 mL/kg. From 5 minutes thereafter, writhing numbers during 10 minutes were counted and a suppressive rate for each mouse was calculated according to the following formula. Suppressive Rate (%)=[(Mean writhing numbers of the control group)−(Writhing numbers of each mouse)]÷[Mean writhing numbers of the control group]×100

rats [2] = experiment: Hyperalgesia in osteoarthritis model induced by monoiodoacetic acid into joints of rats; assay type: in vivo; settings: oral administration of 1 mg/kg
Chung model rat = experiment: Test for analgesic effect (2)/(3): Chung model rat, mechanical allodynia by von Frey filament; assay type: in vivo, rats
Experimental: A test for analgesic effect was conducted using a Chung model rat which is a neuropathic pain model. As to the test animal, male rats of Wistar strain of nine weeks age were used and model rats were prepared in accordance with the method of Kim and Chung (Pain, vol. 50, pages 355 to 363, 1992). Thus, under anesthetization with pentobarbital (40 mg/kg, intraperitoneal administration), rat L5 spinal nerve was exposed and L5 dorsal root ganglion periphery side was strongly ligated using 5-0 silk yarn. The animals were placed in a transparent acrylate cage whose bottom was made of wire net, a 50% reaction threshold value was calculated by an up-down method using a von Frey filament (manufactured by North Coast Medical Inc.) according to the methods of Chaplan, et al. (J. Neurosci. Method, vol. 53, pages 55 to 63, 1994) and by Lee, et al. (J. Neurophysiol., vol. 81, pages 2226 to 2233, 1999) and measurement of allodynia was conducted. Before injury of spinal nerve, the 50% reaction threshold value was measured twice and the animals where the threshold value was outside the standard were excluded from the operation for spinal nerve injury. […] Those test animals were made into groups of seven animals so that the mean value of 50% reaction threshold after 28 days from the nerve injury as an index became nearly the same in each group.
The carboxylic acid type of the compounds of the present invention as a test substance was intraperitoneally administered in a single dose while, a 0.5% CMC-Na/physiological saline solution was administered similarly to a nerve injury control group. After 30 minutes from the administration of the test substance, allodynia was measured to calculate a 50% reaction threshold value. With regard to a significance test, Paired t-test was conducted for comparison between before and after the nerve injury and Dunnett's multiple comparison test was used for comparison among multiple groups of the nerve injury control group and the test substance administration group.
According to the same manner as in the above Test for Analgesic Effect (2), each of Compound 12 of the present invention (3 mg/kg, 10 mg/kg) and Carboxylic acid substance A of the compound of the present invention (10 mg/kg) was orally administered in a single dose as the test substance to Chung model rats. Allodynia after 0, 15, 30, 60 and 120 minutes from the administration was measured for each of the test substance administration group and the nerve injury control group whereupon a 50% reaction threshold value was calculated.

[3] = design: species or system cynomolgus monkeys; settings: cynomolgus monkey, in vivo, 30 mg/kg
Experimental: Each of the compound of the present invention and Carboxylic acid type A thereof dissolved or suspended in a hydrochloric acid solution was diluted with water. […] At the stages of before the administration and of 0.25, 0.5, 1, 2, 4, 8 and 24 hour(s) after the administration, the blood was collected from femoral vein using a syringe to which heparin was added followed by subjecting to centrifugation to collect the plasma. Collection of the blood was conducted for three times in total where one collection was done with each blank term of six days for each test substance. Concentration of Carboxylic acid type A in each of the collected plasma samples was quantified by an LC-MS and Cmax (maximum drug concentration in plasma) and AUC (area under blood concentration time curve; 0 to ∞ hour(s)) of the compound of the present invention and Carboxylic acid type A thereof were calculated.

mice [4] = experiment: Single dose toxicity test by administration to mice; assay type: in vivo; settings: intraperitoneal 250, 500 and 1,000 mg/kg; 14 days
Experimental: A single dose toxicity test by intraperitoneal administration of the carboxylic acid type of the compounds of the present invention to mice was carried out. Male mice of ddY strain of four weeks age were made into groups of five mice so as to make mean body weight in each group nearly the same. Carboxylic acid type A as a test substance was intraperitoneally administered at the doses of 250 mg/kg, 500 mg/kg and 1,000 mg/kg.

rats [5] = experiment: Formalin pain test for rats, second phase; assay type: in vivo; settings: oral administration of 100 mg/kg
SART stressed mouse = experiment: Test for analgesic effect (1): SART stressed mouse, modified Randall-Selitto tail pressure method; assay type: in vivo, mice
[6] = Test of kinetics in blood of rats; assay type: in vivo; settings: rat, in vivo, po, 10 mg/kg
Experimental: Each of the compound of the present invention and the carboxylic acid type A thereof was dissolved in DMSO, diluted with water. A sample solution (1% DMSO solution) made into 2 mg/mL was orally administered in a single dose to the fasted Wistar strain SPF male rats of seven weeks age using a stomach tube (10 mg/5 mL/kg). At the stages of 0.25, 0.5, 1, 2, 4 and 8 hour(s) after the administration, about 150 μL of the blood was collected from tail vein using a capillary to which heparin was added and said capillary was centrifuged to collect the plasma. Protein was removed from the plasma sample and the supernatant liquid was diluted to prepare each sample solution for the measurement.

[7] = intraperitoneally administered 100 μg/kg to mice

C=CC(=O)N[C@@H](Cc1cncn1C)C(=O)O [Carboxylic acid type A, N^α-acryloyl-N^π-methyl-L-histidine]
Suppressive Rate (%) (mice [1]): 33.1% | analgesic effect on hyperalgesia (rats [2]): significant analgesic effect | threshold as compared with the nerve injury control group (Chung model rat; intraperitoneal single dose): significant increase in the threshold | 50% reaction threshold value (Chung model rat; intraperitoneally 100 μg/kg single dose, 30 minutes after administration): 9.60 g | anti-allodynia action to mechanical allodynia (Chung model rat; oral administration, dose of 10 mg/kg, peak after 30 minutes): significant anti-allodynia action | ED50 value determined from the improving rate at the peak of the action (Chung model rat; oral administration, peak after 30 minutes): 2.4 mg/kg | anti-allodynia action as compared with the nerve injury control group (Chung model rat; oral single dose (Compound 12: 3 and 10 mg/kg; Carboxylic acid type A: 10 mg/kg), 15, 30 and 60 minutes after administration, FIG. 1): significant anti-allodynia action | AUC [3]: 2356.9 ng·h/mL | Cmax [3]: 410.8 ng/mL | death (mice [4]): no death case | analgesic action against pain reaction in the second phase (rats [5]): significant analgesic action | Analgesic coefficient (SART stressed mouse; 25 ng per mouse into the lateral ventricle, 30 minutes after administration, pain threshold of test group divided by that of SART control group, 1.0 = no effect): 1.33 | Analgesic coefficient (SART stressed mouse; [7]): 1.24 | pain threshold value (SART stressed mouse; [7]): 97.8 g | analgesic action (SART stressed mouse; oral administration in mice, dose of 3 and 10 mg/kg, peak after 30 minutes): significant analgesic action | ED50 value determined from the improving rate at peak of action (SART stressed mouse; oral administration in mice, peak after 30 minutes): 2.7 mg/kg | AUC [6]: 1339.4 ng·h/mL | Cmax [6]: 372.5 ng/mL
